# Assays:
# human PPARγ = test: Reporter gene bioassay of PPAR transcriptional activity (Gal4-hPPARγ / UAStkLuc luciferase in 293 cells); assay type: cell-based; details: each compound alone, 16 h, FIGS. 1A and B
# Method: FIG. 1A, 1B illustrate a transcriptional activation of PPARγ by BNZ and PAA. Luciferase assay was performed in 293 cells transfected with Gal4-hPPARγ and UAStkLuc reporter construct and treated for 16 h with respective compounds. Data are expressed as fold change ±SEM compared to untreated cells set at 1.0.*, P<0.05; **, P<0.001.
# FIG. 1C illustrates the additive effect of SB and PAA on transcriptional activity of PPARγ. Luciferase assay was performed in 293 cells transfected with Gal4-hPPARγ and UAStkLuc reporter construct and treated 10 mM of each compound for 16 h. Data are expressed as fold change ±SEM compared to untreated cells set at 1.0.*, P<0.001.
# Human embryonic kidney 293 cells were seeded in DMEM supplemented with 5% charcoal dextran-treated FBS and transfected with Gal4 DBD fusion of PPAR isoforms and UAStkLuc reporter as described (12). Cells were then treated for 16 hrs and harvested for luciferase activity. Luciferase values were normalized for transfection efficiency to β-galactosidase activity and expressed as relative fold response compared to untreated cells. Data are derived from at least four independent experiments performed in triplicates. […]
# CD4+ T cells = test: Treatment of CD4+ T cells from healthy volunteers and Systemic Lupus Erythematosus patients; assay type: cell-based, human; details: preliminary data, FIG. 6; CD4+ T cells stimulated with α-CD3/CD28 beads
# From the text: FIG. 6 illustrates BZN+PAA (HIP-002) treatment of T cells derived from healthy volunteer (HV) and Systemic Lupus Erythematous (SLE) patients.
# Next, we examined if BZN+PAA can improve immune function of T lymphocytes in Systemic Lupus Erythematosus (SLE). […] Dilutions effects of the BZN+PAA drug (HIP-002) are shown. (FIG. 6A). CD4+ T cells were stimulated with α-CD3/CD28 beads for 4 (red) or 5 (black) days and cytotoxicity determined by Live/Dead staining. (FIG. 6B) CD4+ T cells were stimulated as in (FIG. 6A) for 5 days, and the surface expression of CD154 and CD25 measured by FACS analysis. (FIG. 6C) CD4+ T cells were stimulated as in (FIG. 6A), and proliferation measured by dilution of the CellTrace Violet dye. White bars: HV; n=2-3. Gray bars: SLE patients; n=3-4. * p<0.05, ** p<0.01, *** p<0.0001.
smiles,measurement,setting,value
"O=C([O-])c1ccccc1.[Na+] [BNZ, benzoate]","PPARγ activity (transcriptional activation, luciferase)",human PPARγ,significantly potent in increasing PPARγ activity
same,effect on growth and survival of T lymphocytes,CD4+ T cells,beneficial effect on the growth and survival of these cells

# From US20190000790A1, “PPAR-GAMMA ACTIVATORS AND THEIR THE[…]” (THERIAC B[…]., priority 2015, published 2019)
